The results in this text go back to US10688143B2, “Composition containing extract or fraction of genus Justicia plant” (priority 2014, dated 2020).

One assay concerns U266B1 cells. The experiment in a line: Inhibition of IgE antibody secretion in U266B1 cells (IgE ELISA). The assay is classed as cell-based. (In general: In an ELISA, binding on a coated surface is turned into a signal by an enzyme label.)
A further assay deals with MC/9 mouse mast cells. The experiment in a line: Degranulation inhibition (β-hexosaminidase secretion) in MC/9 mast cells induced with PMA/A23187. In kind it is cell-based.
In assay [1] the test system is RBL-2H3 rat basophilic cells. The assay is described as follows: Degranulation inhibition (β-hexosaminidase secretion) in RBL-2H3 basophils induced with PMA/A23187. In kind it is cell-based.
Method: (§1) MC/9 mouse mast cells were purchased from the American Tissue Cell Culture (ATCC # CRL-8306), and RBL-2H3 rat basophilic cells were purchased from the Korean Cell Link Bank (KCLB #22256). MC/9 mast cells and RBL-2H3 basophils were diluted at concentrations of 2×10^6 cells/mL and 5×10^5 cells/mL, respectively, and 400 μl of each of the dilutions was dispensed into each well of 24-well plates. Each well was pretreated with 10 μg/mL or 20 μg/mL of each of the extracts and fractions (prepared in Preparation Examples 1 and 2 and shown in Tables 1 to 5 above) for 30 minutes, and then degranulation of the cells was induced with 200 nM PMA/10 mM A23187 for 1 hour. […] The absorbance at 405 nm was measured, and β-hexosaminidase secretion (%) was calculated using the following equation 2: β-hexosaminidase secretion (%)={absorbance of medium/(absorbance of cell lysate+absorbance of medium)}×100 Equation 2
(§2) Based on β-hexosaminidase secretion (%) obtained using equation 2 above, the degranulation inhibitory ability of each of the Justicia procumbens L. extracts was calculated using the following equation 3 (β-heXo: β-hexosaminidase): Degranulation inhibitory ability (%)={(β-hexo secretion % of test group−β-hexo secretion % of normal group)/(β-hexo secretion % of control group−β-hexo secretion % of normal group)}×100 Equation 3
In assay [2] the test system is Balb/c mouse rhinitis models. The assay is described as follows: Inhibition of IgE secretion in Balb/c mouse rhinitis models (ovalbumin). The following applies: extract 200 mg/kg oral daily for 1 week, dexamethasone 3 mg/kg intraperitoneal. In kind it is in vivo. The procedure: Specifically, 5-week-old Balb/c mice were purchased and acclimated for 1 week. On 0, 7 and 14 days of one week of acclimation, the mice were systematically sensitized by intraperitoneally injecting 0.1% ovalbumin (OVA: 1 mg/mL, Al(OH)3: 20 mg/ml) in an amount of 100 μl/mouse. […] As a positive control, 3 mg/kg of dexamethasone was intraperitoneally administered. After 1 hour, 0.4% ovalbumin solution was dropped into the nasal cavity. In the afternoon, 0.4% ovalbumin solution was dropped once more into the nasal cavity. […] The inhibition (%) of IgE secretion was calculated using the following equation 4: Inhibition (%) of secretion=100−{(concentration in test group−concentration in normal group)/(concentration in ovalbumin-induced group−concentration in normal group)}×100 Equation 4

For assay [3], the system named is Balb/c mouse asthma models. The experiment in a line: Inhibition of asthma in Balb/c mouse asthma models (ovalbumin): serum IgE, BALF IL-4, IL-5, inflammatory cells. In kind it is in vivo. The following applies: extracts 200 mg/kg oral daily for 10 days, dexamethasone 3 mg/kg intraperitoneal. On the procedure:
5-week-old Balb/c mice were purchased and acclimated for 1 week. On 0 and 14 days of 1 week of acclimation, the mice were systematically sensitized by intraperitoneally administering 0.1% ovalbumin (OVA: 1 mg/mL, Al(OH)3: 20 mg/mL) in an amount of 100 μl/mouse. […] As a positive control, 3 mg/kg of dexamethasone was administered intraperitoneally. After one hour, 0.2% ovalbumin solution was sprayed and inhaled into the mice for 1 hour by use of a nebulizer (PARI Boy SX, Germany GmbH). 5 hours after final sensitization (30 days), the mice were biopsied, and whole blood was sampled from the mice and centrifuged at 12000 rpm for 10 minutes to separate serum. In addition, the lung tissue was isolated from each mouse and flushed with 1 mL of phosphate buffered saline through tracheostomy to collect bronchoalveolar lavage fluid (BALF). The collected bronchoalveolar lavage fluid was centrifuged at 3000 rpm for 10 minutes, and the supernatant was used to measure physiologically active substances (IL-4, and IL-5), and the pellets were used to measure the number of inflammatory cells.
The IgE concentration in the separated serum was measured using IgE enzyme-linked immonosorbent assay (ELISA, Komabiotech Inc.), and the physiologically active substances (interleukin-4 (IL-4) and interleukin-5 (IL-5)) in the isolated bronchoalveolar lavage fluid were measured using an enzyme-linked immonosorbent assay (ELISA, IL-4: Enzo # ADI-900-043, IL-5: R&D system # M5000) corresponding to each substance. The results of the measurement are shown in Table 14 below, and the ability of each extract to inhibit IgE secretion was calculated in the same manner as equation 4 shown in Example 3.
In addition, the bronchoalveolar lavage fluid pellets were re-dissolved in 0.5 mL of phosphate buffered saline, and 0.1 mL of the solution was added to each well of a 96-well plate and centrifuged at 800 rpm for 5 minutes to attach the cells to the bottom (3 wells per sample). Then, each sample was stained with Diff Quik staining solution (Sysmex), and photographed with a microscope at 2-6 random sites. About 200 cells per sample were counted to calculate the percentage (%) of inflammatory cells of each group. The total number of inflammatory cells was measured with a microscope using a hematocytometer, and the number of basophils was calculated using the percentage (%) of each inflammatory cells, and is shown in FIG. 1. Statistical processing was performed using an SPSS program, and a Levene test was performed for a test for equal variance, and significance was tested by one-way analysis (ANOVA).

SMILES strings stand for the structures. Where two headings read alike, the source gives them in different places.

Method for MC/9 mouse mast cells: as §1, §2
Method for U266B1 cells: The U266B1 cells used were purchased from the American Tissue Cell Culture (ATCC # TIB-196). Specifically, U266B1 cells were diluted in RPMI medium containing 15% fetal bovine serum (FBS) and antibiotics (100 U/mL of penicillin and 100 μg/mL of streptomycin) at a concentration of 2×10^5 cells/mL, and then the dilution was dispensed in a 24-well plate at a concentration of 400 μl/well and in a 96-well plate at a concentration of 100 μl/well, and incubated in a 5% CO2 incubator at 37° C. for 72 hours.
The U266B1 cells were treated with 5 mg/mL of each of the Justicia procumbens L. extracts and fractions (prepared in Preparation Examples 1 and 2 and shown in Tables 1 to 5). The medium in the 24-well plate was used to measure IgE antibody secretion, and the 96-well plate was used to measure cytotoxicity.
For measurement of IgE antibody secretion, the medium in the 24-well plate was collected and centrifuged at 125×g for 5 minutes to remove debris. 100 g of the medium was diluted 10-fold, and then the degree of IgE secretion was measured using IgE enzyme-linked immonosorbent assay (ELISA, Komabiotech Inc).

`C[C@@H]1C[C@H]2[C@@H]3CCC4=CC(=O)C=C[C@]4(C)[C@@]3(F)[C@@H](O)C[C@]2(C)[C@@]1(O)C(=O)CO` [Dexamethasone]: the inhibition at 5 µg/mL with U266B1 cells (U266B1, 5 μg/mL, organic solvent extracts and fractions, Table 8, read-out: IgE secretion inhibition (%) (n = 3, Mean ± SE)) was found to be 4 ± 3.4%. Also, the inhibition at 5 µg/mL in the assay on U266B1 cells (U266B1, concentration of test group 5 μg/mL, Table 6, read-out: IgE secretion inhibition (%) (n = 4, Mean ± SE)) was determined as 8 ± 15%. The “Degranulation inhibition (%) (n = 3, Mean ± SE)” value with MC/9 mouse mast cells (MC/9, 10 μg/mL, Table 11) is reported as 35 ± 0.2%. Also, the “Inhibition (%) of degranulation (n = 3, Mean ± SE)” value in the assay on MC/9 mouse mast cells (MC/9, 20 μg/mL, Table 9) was determined as 64 ± 0.2%. In addition, the inhibition at 10 µg/mL in assay [1] (RBL-2H3, 10 μg/mL, Table 11, read-out: Degranulation inhibition (%) (n = 3, Mean ± SE)) is 14 ± 3%. Moreover, in assay [1] (RBL-2H3, 20 μg/mL, Table 9, read-out: Inhibition (%) of degranulation (n = 3, Mean ± SE)), the inhibition at 20 µg/mL worked out at 18 ± 1%. The “Serum IgE concentration (ng/mL, Mean ± SE)” value in assay [2] came out at 32.2 ± 4.4 ng/mL. In addition, the “Inhibition of IgE secretion (%, Mean ± SE)” value in assay [2] (equation 4) is listed as 67.3 ± 6.3%. In addition, in assay [3], the “Bronchoalveolar lavage fluid IL-4 (inhibition of IgE secretion, (%)), Mean ± SD” value is given as “(72.7 ± 3.8) %”; the “Bronchoalveolar lavage fluid IL-4 (pg/mL), Mean ± SD” value was 56.0 ± 2.1 # pg/mL; the “Bronchoalveolar lavage fluid IL-5 (inhibition of IgE secretion, (%)), Mean ± SD” value was “(98.7 ± 9.2) %”; the “Bronchoalveolar lavage fluid IL-5 (pg/mL), Mean ± SD” value was 4.8 ± 3.2 # pg/mL. Moreover, the “Serum IgE concentration (ng/mL), Mean ± SD” value in assay [3] is 85.8 ± 4.9 # ng/mL. In addition, the “Serum IgE (inhibition of IgE secretion, (%)), Mean ± SD” value in assay [3] (equation 4) is given as “(25.0 ± 5.8) %”.

For orientation: inhibition means the relative decrease from the control value, in per cent.
